Measured values: ChEMBL document CHEMBL1127177, “(E) and (Z)5-fluoro olefin carbocyclic nucleosides: effect of olefin geometry on inhibition of s-adenosyl-l-homocysteine hydrolase” (Bioorg Med Chem Lett, 1993)

Experiments:
[1] = target: T1, Adenosylhomocysteinase (Rattus norvegicus) (UniProt P10760)
T1 sequence (whole entry): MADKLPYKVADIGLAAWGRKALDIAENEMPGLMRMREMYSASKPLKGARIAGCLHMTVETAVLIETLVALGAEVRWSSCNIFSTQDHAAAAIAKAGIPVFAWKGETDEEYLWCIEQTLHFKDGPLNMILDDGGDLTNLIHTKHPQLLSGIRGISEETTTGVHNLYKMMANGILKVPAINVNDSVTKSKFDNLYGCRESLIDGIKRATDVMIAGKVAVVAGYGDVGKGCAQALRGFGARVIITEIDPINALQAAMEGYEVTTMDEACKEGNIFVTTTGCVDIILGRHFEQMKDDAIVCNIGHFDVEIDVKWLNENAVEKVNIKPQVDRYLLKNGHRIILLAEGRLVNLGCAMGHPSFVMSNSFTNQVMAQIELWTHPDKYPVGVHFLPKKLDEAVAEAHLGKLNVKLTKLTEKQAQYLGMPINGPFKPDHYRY
Description: Tested for rate constant for inactivation of S-adenosyl-L-homocysteine hydrolase from rat

T-cell [2] = assay: Tested for inhibition of T cell proliferation; assay type: functional, cell-based; details: Mus musculus
Adenosylhomocysteinase = target: T2, Adenosylhomocysteinase (Rattus norvegicus, UniProt P10760); assay: Tested for binding affinity of compound against S-adenosyl-L-homocysteine hydrolase
T2 sequence (P10760 whole entry): T1 sequence (whole entry)

T-cell [3] = assay: Inhibition of T cell proliferation was determined using murine splenic mononuclear cells; assay type: functional, cell-based; details: Mus musculus

Nc1ncnc2c1ncn2C1C/C(=C\F)C(O)C1O (stereo not given)
K inact [1]: 0.18 min⁻¹
IC50 (T-cell [2]): 0.8 µM
Ki (Adenosylhomocysteinase): 6.9 µM

Nc1ncnc2c1ncn2C1C/C(=C/F)C(O)C1O (stereo not given)
IC50 (T-cell [3]): 6.7 µM
Ki (Adenosylhomocysteinase): 1.1 µM
